In BindingDB's records for doi:10.1021/acs.jnatprod.8b00574 (Institute of Medicinal and Aromatic Plants, 2018):

Key:
[1] = Inhibition of thrombin in human platelet rich plasma assessed as reduction in arachidonic acid-induced platelet aggregation after 5 mins
[2] = Inhibition of thrombin in human washed platelets assessed as reduction in thrombin-induced platelet aggregation after 5 mins
[3] = Inhibition of thrombin in human platelet rich plasma assessed as reduction in thrombin-induced platelet aggregation after 5 mins
[4] = Inhibition of thrombin in human platelet rich plasma assessed as reduction in ADP-induced platelet aggregation after 5 mins

## CC[C@H](CC[C@@H](C)[C@H]1CC[C@H]2[C@@H]3CC=C4C[C@@H](O)CC[C@]4(C)[C@H]3CC[C@]12C)C(C)C [stigmast-5-en-3beta-ol]
[1]
  IC50: 1500 µM
[2]
  IC50: 9.2 µM
[3]
  IC50: 10.5 µM
[4]
  IC50: 1500 µM
